± gives the uncertainty stated by the source.
Assay: xn = mol fraction of the nth substance listed

CC(CC(C)(C)C)CP(=O)(O)CC(C)CC(C)(C)C (configuration not stated) + C1CCCCC1
298.15 K, 101 kPa
Conditions	viscosity [mPa·s]
x1 = 0.007	0.95 ± 0.011
x1 = 0.0117	0.998 ± 0.012
x1 = 0.015	1.052 ± 0.012
x2 = 0.1098	97.92 ± 1.5
x2 = 0.1822	85 ± 1.2
x2 = 0.3325	59.34 ± 0.68
x2 = 0.505	32.7 ± 0.38
x2 = 0.6519	16.56 ± 0.19
x2 = 0.7568	8.757 ± 0.1
x2 = 0.7617	8.623 ± 0.099
x2 = 0.851	4.302 ± 0.05
x2 = 0.8636	3.779 ± 0.044
x2 = 0.8895	3.032 ± 0.035
x2 = 0.9226	2.188 ± 0.026
x2 = 0.9255	2.102 ± 0.025
x2 = 0.9573	1.489 ± 0.017
x2 = 0.9686	1.301 ± 0.015

CCOCCO + C1CCCCC1
viscosity [mPa·s]
Conditions	298.15 K	303.15 K	308.15 K	313.15 K
101 kPa, x1 = 0.0542	0.903 ± 0.016	–	0.755 ± 0.013	–
101 kPa, x1 = 0.1507	0.92 ± 0.016	–	0.775 ± 0.014	–
101 kPa, x1 = 0.2541	0.952 ± 0.016	–	0.805 ± 0.014	–
101 kPa, x1 = 0.3508	0.996 ± 0.017	–	0.841 ± 0.014	–
101 kPa, x1 = 0.452	1.057 ± 0.018	–	0.888 ± 0.015	–
101 kPa, x1 = 0.5	1.093 ± 0.018	–	0.915 ± 0.016	–
101 kPa, x1 = 0.5497	1.135 ± 0.019	–	0.945 ± 0.016	–
101 kPa, x1 = 0.6534	1.24 ± 0.02	–	1.019 ± 0.017	–
101 kPa, x1 = 0.7527	1.368 ± 0.022	–	1.105 ± 0.018	–
101 kPa, x1 = 0.8492	1.524 ± 0.024	–	1.206 ± 0.02	–
101 kPa, x1 = 0.9552	1.741 ± 0.028	–	1.341 ± 0.022	–
101.33 kPa, x1 = 0.0993	0.864 ± 0.022	0.787 ± 0.02	0.724 ± 0.019	0.663 ± 0.018
101.33 kPa, x1 = 0.2013	0.91 ± 0.023	0.827 ± 0.021	0.755 ± 0.02	0.696 ± 0.018
101.33 kPa, x1 = 0.2968	0.961 ± 0.024	0.875 ± 0.022	0.798 ± 0.02	0.731 ± 0.019
101.33 kPa, x1 = 0.4007	1.035 ± 0.026	0.938 ± 0.024	0.852 ± 0.022	0.786 ± 0.02
101.33 kPa, x1 = 0.495	1.112 ± 0.027	1.004 ± 0.025	0.884 ± 0.022	0.837 ± 0.021
101.33 kPa, x1 = 0.5998	1.211 ± 0.029	1.093 ± 0.027	0.992 ± 0.025	0.899 ± 0.023
101.33 kPa, x1 = 0.6974	1.341 ± 0.032	1.2 ± 0.029	1.085 ± 0.027	0.977 ± 0.024
101.33 kPa, x1 = 0.808	1.496 ± 0.036	1.341 ± 0.032	1.206 ± 0.029	1.094 ± 0.027
101.33 kPa, x1 = 0.9006	1.714 ± 0.04	1.527 ± 0.036	1.371 ± 0.033	1.231 ± 0.03

CCOCCO + C1CCOC1
viscosity [mPa·s], 101.33 kPa
Conditions	x1 = 0.1003	x1 = 0.2025	x1 = 0.3008	x1 = 0.403	x1 = 0.5069	x1 = 0.6012	x1 = 0.7048	x1 = 0.7983	x1 = 0.8839
298.15 K	0.593 ± 0.004	0.677 ± 0.005	0.787 ± 0.005	0.908 ± 0.006	1.057 ± 0.007	1.232 ± 0.008	1.503 ± 0.01	1.701 ± 0.011	1.898 ± 0.012
303.15 K	0.502 ± 0.004	0.571 ± 0.004	0.66 ± 0.005	0.756 ± 0.005	0.874 ± 0.006	1.011 ± 0.007	1.223 ± 0.008	1.381 ± 0.009	1.546 ± 0.01
308.15 K	0.475 ± 0.004	0.539 ± 0.004	0.618 ± 0.005	0.702 ± 0.005	0.808 ± 0.006	0.93 ± 0.006	1.091 ± 0.007	1.242 ± 0.008	1.385 ± 0.009

CC(C)CCO + C1COCCO1
viscosity [mPa·s], 101 kPa
Conditions	x1 = 0.1	x1 = 0.2067	x1 = 0.3006	x1 = 0.4011	x1 = 0.5011	x1 = 0.609	x1 = 0.7009	x1 = 0.8003	x1 = 0.908
298.15 K	1.135 ± 0.02	1.151 ± 0.02	1.189 ± 0.021	1.261 ± 0.022	1.37 ± 0.023	1.519 ± 0.025	1.737 ± 0.028	2.122 ± 0.034	2.79 ± 0.044
303.15 K	1.049 ± 0.019	1.068 ± 0.019	1.116 ± 0.019	1.177 ± 0.02	1.265 ± 0.021	1.388 ± 0.023	1.562 ± 0.025	1.87 ± 0.03	2.429 ± 0.039
308.15 K	0.9581 ± 0.017	0.9865 ± 0.017	1.039 ± 0.018	1.097 ± 0.019	1.156 ± 0.019	1.243 ± 0.021	1.359 ± 0.022	1.615 ± 0.026	2.081 ± 0.033

CCOCCO + C1COCCO1
viscosity [mPa·s], 101.33 kPa
Conditions	x1 = 0.1009	x1 = 0.2023	x1 = 0.3051	x1 = 0.4014	x1 = 0.499	x1 = 0.602	x1 = 0.7004	x1 = 0.8031	x1 = 0.8976
298.15 K	1.293 ± 0.009	1.299 ± 0.009	1.324 ± 0.009	1.367 ± 0.009	1.424 ± 0.009	1.511 ± 0.01	1.6 ± 0.01	1.733 ± 0.011	1.844 ± 0.011
303.15 K	1.069 ± 0.007	1.066 ± 0.007	1.085 ± 0.007	1.119 ± 0.007	1.162 ± 0.008	1.228 ± 0.008	1.299 ± 0.008	1.4 ± 0.009	1.487 ± 0.009
308.15 K	0.982 ± 0.007	0.992 ± 0.007	1 ± 0.007	1.028 ± 0.007	1.07 ± 0.007	1.12 ± 0.007	1.183 ± 0.008	1.268 ± 0.008	1.344 ± 0.009

CC(C)CCO + C1COCO1
viscosity [mPa·s], 101 kPa
Conditions	x2 = 0.1168	x2 = 0.2293	x2 = 0.3377	x2 = 0.4424	x2 = 0.5434	x2 = 0.6409	x2 = 0.7352	x2 = 0.8264	x2 = 0.9146
298.15 K	3.017 ± 0.066	2.523 ± 0.064	2.174 ± 0.063	1.884 ± 0.062	1.366 ± 0.061	0.9079 ± 0.06	0.8074 ± 0.06	0.7367 ± 0.06	0.6474 ± 0.06
303.15 K	2.3 ± 0.025	1.806 ± 0.023	1.458 ± 0.022	1.167 ± 0.021	0.9949 ± 0.021	0.8818 ± 0.021	0.7812 ± 0.021	0.7104 ± 0.021	0.6212 ± 0.02

CCOCCO + C1COCO1
298.15 K, 101 kPa
Conditions	viscosity [mPa·s]
x2 = 0.1191	1.605 ± 0.012
x2 = 0.2332	1.379 ± 0.011
x2 = 0.3427	1.187 ± 0.0094
x2 = 0.4478	1.03 ± 0.0083
x2 = 0.5488	0.9124 ± 0.0074
x2 = 0.646	0.8144 ± 0.0068
x2 = 0.7395	0.7365 ± 0.0062
x2 = 0.8295	0.6706 ± 0.0057
x2 = 0.9163	0.6129 ± 0.0053

CCOCCO + C=C(C)C(=O)OC
viscosity [mPa·s], 101.3 kPa
Conditions	298.15 K	308.15 K
x2 = 0.0533	1.64 ± 0.01	1.305 ± 0.008
x2 = 0.154	1.402 ± 0.009	1.146 ± 0.008
x2 = 0.2467	1.225 ± 0.008	1.022 ± 0.007
x2 = 0.3554	1.059 ± 0.007	0.9 ± 0.006
x2 = 0.4551	0.937 ± 0.006	0.807 ± 0.006
x2 = 0.4993	0.89 ± 0.006	0.77 ± 0.005
x2 = 0.5543	0.838 ± 0.006	0.727 ± 0.005
x2 = 0.6547	0.758 ± 0.005	0.658 ± 0.005
x2 = 0.7547	0.693 ± 0.005	0.6 ± 0.004
x2 = 0.8858	0.628 ± 0.004	0.537 ± 0.004
x2 = 0.9532	0.603 ± 0.004	0.517 ± 0.004

CCOCCO + CC#N
viscosity [mPa·s], 101.33 kPa
Conditions	x1 = 0.1016	x1 = 0.2016	x1 = 0.2865	x1 = 0.4004	x1 = 0.5026	x1 = 0.6026	x1 = 0.7122	x1 = 0.7978	x1 = 0.8997
298.15 K	0.458 ± 0.004	0.546 ± 0.004	0.638 ± 0.005	0.79 ± 0.005	0.946 ± 0.006	1.128 ± 0.007	1.346 ± 0.009	1.524 ± 0.01	1.786 ± 0.011
303.15 K	0.389 ± 0.003	0.461 ± 0.004	0.535 ± 0.004	0.655 ± 0.005	0.781 ± 0.005	0.921 ± 0.006	1.075 ± 0.007	1.236 ± 0.008	1.435 ± 0.009
308.15 K	0.37 ± 0.003	0.435 ± 0.003	0.501 ± 0.004	0.608 ± 0.004	0.721 ± 0.005	0.845 ± 0.006	0.978 ± 0.006	1.122 ± 0.007	1.295 ± 0.008
